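Interpolation was linear, between the two tested concentrations surrounding the appropriate level; five concentrations were tested over 48 hours in 96-well plates. TGI: concentration producing complete growth inhibition.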
Key:
Assay in all cases: NCI-60 cell line screen, 48 h
IGROV1 ovarian = test system: IGROV1 ovarian
SNB-19 CNS = test system: SNB-19 CNS
SK-OV-3 ovarian = test system: SK-OV-3 ovarian
BT-549 breast = test system: BT-549 breast
ACHN renal = test system: ACHN renal
K-562 leukemia = test system: K-562 leukemia
NCI-H522 lung = test system: NCI-H522 lung
EKVX NSCLC = test system: EKVX NSCLC
SN12C renal = test system: SN12C renal
HL-60(TB) leukemia = test system: HL-60(TB) leukemia
HCC-2998 colon = test system: HCC-2998 colon
RPMI-8226 leukemia = test system: RPMI-8226 leukemia
COLO 205 colon = test system: COLO 205 colon
UO-31 renal = test system: UO-31 renal
T-47D breast = test system: T-47D breast
MOLT-4 leukemia = test system: MOLT-4 leukemia
LOX IMVI melanoma = test system: LOX IMVI melanoma
SK-MEL-2 melanoma = test system: SK-MEL-2 melanoma
RXF 393 renal = test system: RXF 393 renal
M14 melanoma = test system: M14 melanoma
HT29 colon = test system: HT29 colon
PC-3 prostate = test system: PC-3 prostate
NCI-H460 lung = test system: NCI-H460 lung
CCRF-CEM leukemia = test system: CCRF-CEM leukemia
HCT-15 colon = test system: HCT-15 colon
MDA-MB-231 breast = test system: MDA-MB-231 breast
786-0 renal = test system: 786-0 renal
SR leukemia = test system: SR leukemia
NCI-H23 lung = test system: NCI-H23 lung
DU-145 prostate = test system: DU-145 prostate
UACC-257 melanoma = test system: UACC-257 melanoma
MALME-3M melanoma = test system: MALME-3M melanoma
HS 578T breast = test system: HS 578T breast
NCI-H226 lung = test system: NCI-H226 lung
SW-620 colon = test system: SW-620 colon
HOP-92 NSCLC = test system: HOP-92 NSCLC
TK-10 renal = test system: TK-10 renal
U251 CNS = test system: U251 CNS
OVCAR-3 ovarian = test system: OVCAR-3 ovarian
A498 renal = test system: A498 renal
OVCAR-8 ovarian = test system: OVCAR-8 ovarian
KM12 colon = test system: KM12 colon
HCT-116 colon = test system: HCT-116 colon
OVCAR-4 ovarian = test system: OVCAR-4 ovarian
MDA-MB-435 = test system: MDA-MB-435
SF-295 CNS = test system: SF-295 CNS
CAKI-1 renal = test system: CAKI-1 renal
OVCAR-5 ovarian = test system: OVCAR-5 ovarian
UACC-62 melanoma = test system: UACC-62 melanoma
A549 NSCLC = test system: A549 NSCLC
NCI/ADR-RES ovarian = test system: NCI/ADR-RES ovarian
SF-539 CNS = test system: SF-539 CNS
HOP-62 NSCLC = test system: HOP-62 NSCLC
MCF7 breast = test system: MCF7 breast
SF-268 CNS = test system: SF-268 CNS
SK-MEL-5 melanoma = test system: SK-MEL-5 melanoma
SNB-75 CNS = test system: SNB-75 CNS
SK-MEL-28 melanoma = test system: SK-MEL-28 melanoma

Work on Cc1ccc(SC2=C(N(C)C)C(=O)c3ccccc3C2=O)cc1 yielded a TGI (IGROV1 ovarian) of 17.6 µM, a TGI (SNB-19 CNS) of 29.6 µM and a TGI (SK-OV-3 ovarian) of 41.9 µM. It also gave a TGI (BT-549 breast) of 26.6 µM, a TGI (ACHN renal) of 21.4 µM and a TGI (K-562 leukemia) of 7.68 µM. For the same compound, the TGI (NCI-H522 lung) was 10.5 µM, the TGI (EKVX NSCLC) was 20.1 µM and the TGI (SN12C renal) was 16.6 µM. For the same compound, the TGI (HL-60(TB) leukemia) was 16.9 µM, the TGI (HCC-2998 colon) was 32.4 µM and the TGI (RPMI-8226 leukemia) was 11.7 µM. The TGI (COLO 205 colon) was 51.5 µM, the TGI (UO-31 renal) was 21.9 µM and the TGI (T-47D breast) was greater than 38 µM. It also gave a TGI (MOLT-4 leukemia) of 12.4 µM, a TGI (LOX IMVI melanoma) of 24.6 µM and a TGI (SK-MEL-2 melanoma) of 23.5 µM. It also gave a TGI (RXF 393 renal) of 20.8 µM, a TGI (M14 melanoma) of 16.4 µM and a TGI (HT29 colon) of 31 µM. It also gave a TGI (PC-3 prostate) of 18.7 µM, a TGI (NCI-H460 lung) of 18.5 µM and a TGI (CCRF-CEM leukemia) of 17.5 µM. For the same compound, the TGI (HCT-15 colon) was greater than 39.9 µM, the TGI (MDA-MB-231 breast) was 20.1 µM and the TGI (786-0 renal) was greater than 32.2 µM. It also gave a TGI (SR leukemia) of 3.84 µM, a TGI (NCI-H23 lung) of 10.4 µM and a TGI (DU-145 prostate) of 23 µM. The TGI (UACC-257 melanoma) was 15.6 µM, the TGI (MALME-3M melanoma) was 18.4 µM and the TGI (HS 578T breast) was greater than 27.6 µM. It also gave a TGI (NCI-H226 lung) of 25.8 µM, a TGI (SW-620 colon) of 16.1 µM and a TGI (HOP-92 NSCLC) of 18.3 µM. For the same compound, the TGI (TK-10 renal) was 21.6 µM, the TGI (U251 CNS) was 23.7 µM and the TGI (OVCAR-3 ovarian) was 2.96 µM. It also gave a TGI (A498 renal) of 50.3 µM, a TGI (OVCAR-8 ovarian) of 6.44 µM and a TGI (KM12 colon) of 16.4 µM. It also gave a TGI (HCT-116 colon) of 7.26 µM, a TGI (OVCAR-4 ovarian) of 24.8 µM and a TGI (MDA-MB-435) of 1.22 µM. For the same compound, the TGI (SF-295 CNS) was 25.6 µM, the TGI (CAKI-1 renal) was 9.73 µM and the TGI (OVCAR-5 ovarian) was 40.3 µM. The TGI (UACC-62 melanoma) was 17.8 µM, the TGI (A549 NSCLC) was 30.2 µM and the TGI (NCI/ADR-RES ovarian) was 6.35 µM. For the same compound, the TGI (SF-539 CNS) was 9.71 µM, the TGI (HOP-62 NSCLC) was 23.6 µM and the TGI (MCF7 breast) was 17.5 µM. For the same compound, the TGI (SF-268 CNS) was 18.4 µM, the TGI (SK-MEL-5 melanoma) was 8.6 µM and the TGI (SNB-75 CNS) was 43.5 µM. It also gave a TGI (SK-MEL-28 melanoma) of 25.8 µM.

Source: PubChem BioAssay (NCI)
